Test results published in US5494913A, “Antifungal compounds” (Schering Corporation, priority 1994, dated 1996).
Converted amounts (≈) assume the structure as drawn.

Tests used:
Aspergillus = test: In vitro antifungal MIC in SDB (pH 5.7), Aspergillus; assay type: cell-based; conditions: 3 strains; for MIC: 48/72 hr, read-out: Geometric means MICs, 48/72 hr
Protocol: (§1) Compounds A and B of the invention were tested in standard antifungal assays and data from these tests appear in the Table 13 just below.
(§2) In vitro activity of compounds
(§3) A and B and Albofungin against various fungi
(§4) Geometric means MICs μg/ml, 48/72 hr)
(§5) SDB means Sabourand dextrose broth, pH 5.7;

[1] = tested on: various yeasts and dermatophytes; test: Antifungal MIC against various yeasts and dermatophytes (summary statement); assay type: cell-based; conditions: read-out: MIC values
Protocol: as §1

[2] = tested on: C. albicans & C. tropicalis; test: In vitro antifungal MIC in SDB (pH 5.7), C. albicans & C. tropicalis; assay type: cell-based; conditions: 8 strains; for MIC: 48/72 hr, read-out: Geometric means MICs, 48/72 hr
Protocol: as §1, §2, §3, §4, §5

In vivo LD50, iv = conditions: mpk means mg. per kg., range for compounds A and B, printed with "about"
[3] = tested on: C. albicans & C. tropicalis; test: In vitro antifungal MIC in EMEM (pH 7.0), C. albicans & C. tropicalis; assay type: cell-based; conditions: 9 strains; for MIC: 48/72 hr, read-out: Geometric means MICs, 48/72 hr
Protocol: as §1, §2, §3, §4
EMEM means Eagle's minimum essential medium, pH 7.0.

Other Candida = test: In vitro antifungal MIC in SDB (pH 5.7), other Candida; assay type: cell-based; conditions: 6 strains; for MIC: 48/72 hr, read-out: Geometric means MICs, 48/72 hr
Protocol: as §1, §2, §3, §4, §5

Dermatophytes = test: In vitro antifungal MIC in SDB (pH 5.7), dermatophytes; assay type: cell-based; conditions: 5 strains; for MIC: 48/72 hr, read-out: Geometric means MICs, 48/72 hr
Protocol: as §1, §2, §3, §4, §5

Compound | MIC (Aspergillus) | MIC [1] | MIC [2] | LD50 (In vivo LD50, iv) | MIC [3] | MIC (Other Candida) | MIC (Dermatophytes) | Geometric means MICs, 48/72 hr (Aspergillus) | Geometric means MICs, 48/72 hr [2] | Geometric means MICs, 48/72 hr [3] | Geometric means MICs, 48/72 hr (Other Candida) | Geometric means MICs, 48/72 hr (Dermatophytes)
CCC(C)c1cc2c(Cl)c3c(c(O)c2c(=O)n1N)-c1c(O)c2c(c4c1C(C3)OCO4)OC1C(OC)C=CC(O)C1C2=O (stereo not drawn) [Compound A] | 0.0248 µg/mL (≈ 0.0415 µM) | ≤ 0.000386 µg/mL | < 0.000386 µg/mL | 1 to 25 mg/kg | < 2.16 µg/mL | < 0.00128 µg/mL | 0.00764 µg/mL (≈ 0.0128 µM) |  |  |  |  | 
CCC(C)c1cc2cc3c(c(O)c2c(=O)n1C)-c1c(O)c2c(c(OC)c1CC3)O[C@H]1[C@@H](C2=O)[C@@H](O)C=C[C@H]1O (stereo partly drawn) [Compound B] | 0.794 µg/mL (≈ 1.49 µM) |  | 0.017 µg/mL (≈ 0.0319 µM) | 1 to 25 mg/kg | < 0.135 µg/mL | 0.0312 µg/mL (≈ 0.0585 µM) | 0.144 µg/mL (≈ 0.269 µM) |  |  |  |  | 
Albofungin [reference compound] |  |  |  |  |  |  |  | 0.125 µg/mL | < 0.00055 µg/mL | < 0.0182 µg/mL | < 0.00099 µg/mL | 0.0359 µg/mL
